Patent US20260022143A1, “Cyclic Peptide Inhibitors of IL-23” (JANSSEN PHARMACEUTICA NV, priority 2022, published 2026)
Where two headings read alike, the source gives them in different places. Starred links: 1 amine or outer side, 2 acyl side, 3 side chain; linkers in the order of their positions; H or OH if unused. Positions of bridges follow the written chain, without caps; N, C: chain ends. Non-standard residues stand in square brackets, D forms with d. Residues, ends and D or L forms follow the SMILES beside them. Groups on a side chain read outwards from the residue. ξ: configuration not given here. *: point of attachment. X48 = CCCCCCCCCCCC(=O)N[C@@H](CCC(=O)*)C(=O)N[C@H](CC(=O)O)C[N+](C)(C)C; Me3N+(CH2)2O(CH2)2O(CH2)2CO = C[N+](C)(C)CCOCCOCCC(=O)*; CH2CH2OCH2CH2OCH2CH2NMe3+ = C[N+](C)(C)CCOCCOCC*; dTrp(7-Me) = Cc1cccc2c(C[C@@H](N)C(=O)O)c[nH]c12; Trp(7-Me) = Cc1cccc2c(C[C@H](N)C(=O)O)c[nH]c12; d(hLys(Me3)) = C[N+](C)(C)CCCCC[C@@H](N)C(=O)O; Abu(4-yl) = O=C([C@H](CC[*:3])N[*:1])[*:2]; dLys(Me3) = C[N+](C)(C)CCCC[C@@H](N)C(=O)O; γGlu = O=C(O)[C@H](CCC(=O)[*:2])N[*:1]; 2Nal = N[C@@H](Cc1ccc2ccccc2c1)C(=O)O; AEF = NCCOc1ccc(C[C@H](N)C(=O)O)cc1; 3Pal = N[C@@H](Cc1cccnc1)C(=O)O; Myristoyl = CCCCCCCCCCCCCC(=O)*; Lys(Me) = CNCCCC[C@H](N)C(=O)O; Pen = CC(C)(S)[C@H](N)C(=O)O; ξLys(Me) = CNCCCCC(N)C(=O)O; αMeC = C[C@](N)(CS)C(=O)O; Thp = NC1(C(=O)O)CCOCC1; X3 = C[N+](C)(C)CCCCC*; AEEA = NCCOCCOCC(=O)O; Sar = CNCC(=O)O

Key:
[1] = biological target: T1, IL-23R (Homo sapiens, UniProt Q5VWK5); assay: IL23R Reporter Assay; type: cell-based; conditions: HEK293 cells containing IL-23R, IL-12RP1 and STAT-inducible firefly luciferase reporter; 10 ng/mL IL-23 (EC90); 5 h at 37° C.; read-out: IL23R Reporter Assay
T1 construct: host or cells: HEK293
T1 sequence (Q5VWK5 24-629): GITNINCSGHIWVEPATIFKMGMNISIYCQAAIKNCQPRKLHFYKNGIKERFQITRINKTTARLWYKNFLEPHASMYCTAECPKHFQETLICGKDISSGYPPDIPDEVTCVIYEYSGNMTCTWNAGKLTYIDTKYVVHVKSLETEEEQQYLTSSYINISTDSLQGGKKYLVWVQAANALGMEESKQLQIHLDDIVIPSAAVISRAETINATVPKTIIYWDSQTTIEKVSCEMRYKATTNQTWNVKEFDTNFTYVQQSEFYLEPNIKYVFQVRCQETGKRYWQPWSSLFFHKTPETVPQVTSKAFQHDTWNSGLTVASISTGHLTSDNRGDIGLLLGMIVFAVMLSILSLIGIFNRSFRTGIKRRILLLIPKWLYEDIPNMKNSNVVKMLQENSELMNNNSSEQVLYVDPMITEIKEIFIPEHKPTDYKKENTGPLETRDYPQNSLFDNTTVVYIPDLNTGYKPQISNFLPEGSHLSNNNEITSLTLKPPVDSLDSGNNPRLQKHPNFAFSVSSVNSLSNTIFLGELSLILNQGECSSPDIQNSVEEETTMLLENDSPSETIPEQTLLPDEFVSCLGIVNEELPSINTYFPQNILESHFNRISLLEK

[2] = Exposed Polar Surface Area (EPSA); type: physicochemical; conditions: SFC on Chirex 3014 column, sample 1 mM DMSO stock
In short: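 Retention-based polarity: supercritical CO2 with 20 mM ammonium formate in MeOH (5–60%, 20%/min), Chirex 3014 column, 35 °C. Calibrated against 8 standards to give EPSA (Å^2); each sample measured twice.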

Row | Compound | IC50 [1] | EPSA ([2]; read-out: EPSA) | EPSA [2]
1 | CC(=O)N(C)CCCC[C@@H]1NC(=O)[C@H](Cc2ccccc2)NC(=O)[C@H]([C@@H](C)O)NC(=O)[C@H](CC(=O)N(C)C)NC(=O)[C@@H](NC(=O)CCOCCOCC[N+](C)(C)C)C(C)(C)SSC(C)(C)[C@@H](C(=O)N[C@@H](Cc2ccc(OCCOCCOCC[N+](C)(C)C)cc2)C(=O)N[C@@H](Cc2ccccc2)C(=O)NC2(C(=O)N[C@@H](CCCCN(C)C(C)=O)C(=O)N[C@@H](CC(N)=O)C(=O)N[C@@H](Cc3cccnc3)C(=O)N(C)CC(=O)N(C)C)CCOCC2)NC1=O [compound 565, cPEG3aCO-Pen(3)-N(N(Me)2)-T-F-K(NMeAc)-Pen(3)-APEG3F-F-THP-K(NMeAc)-N-3Pya-Sar-CON(Me)2] ({Me3N+(CH2)2O(CH2)2O(CH2)2CO}-[Pen]D(NMe2)TF[Lys(Me)](Ac)[Pen]Y(CH2CH2OCH2CH2OCH2CH2NMe3+)F[Thp][Lys(Me)](Ac)N[3Pal][Sar]-NMe2; disulfide 1-6) | > 16600 nM | 144 A^2 | –
2 | CC(=O)N(C)CCCC[C@@H]1NC(=O)[C@H](CC(C)C)NC(=O)[C@H]([C@@H](C)O)NC(=O)[C@H](CC(=O)N(C)C)NC(=O)[C@@H](NC(=O)CCOCCOCC[N+](C)(C)C)C(C)(C)SSC(C)(C)[C@@H](C(=O)N[C@@H](Cc2ccc(OCCOCCOCC[N+](C)(C)C)cc2)C(=O)N[C@@H](CC(C)C)C(=O)NC2(C(=O)N[C@@H](CCCCN(C)C(C)=O)C(=O)N[C@@H](CC(N)=O)C(=O)N[C@@H](Cc3cccnc3)C(=O)N(C)CC(=O)N(C)C)CCOCC2)NC1=O [compound 566, cPEG3aCO-Pen(3)-N(N(Me)2)-T-L-K(NMeAc)-Pen(3)-APEG3F-L-THP-K(NMeAc)-N-3Pya-Sar-CON(Me)2] ({Me3N+(CH2)2O(CH2)2O(CH2)2CO}-[Pen]D(NMe2)TL[Lys(Me)](Ac)[Pen]Y(CH2CH2OCH2CH2OCH2CH2NMe3+)L[Thp][Lys(Me)](Ac)N[3Pal][Sar]-NMe2; disulfide 1-6) | > 3320 nM | 137 A^2 | –
3 | CC(=O)NCCCC[C@@H]1NC(=O)[C@H](Cc2c[nH]c3ccccc23)NC(=O)[C@H]([C@@H](C)O)NC(=O)[C@H](CC(N)=O)NC(=O)[C@@H](NC(=O)[C@@H](CCCC[N+](C)(C)C)NC(C)=O)CCSC[C@@](C)(C(=O)N[C@@H](Cc2ccc(OCCCCC[N+](C)(C)C)cc2)C(=O)N[C@@H](Cc2ccc3ccccc3c2)C(=O)NC2(C(=O)N[C@@H](CCC(=O)O)C(=O)N[C@@H](CC(N)=O)C(=O)N[C@@H](Cc3cccnc3)C(=O)N(C)CC(N)=O)CCOCC2)NC1=O [compound 567, MeCO-k(Me)3-Abu(1)-N-T-W-K(Ac)-aMeC(1)-TMAPF-2Nal-THP-E-N-3Pya-Sar-CONH2] (Ac-[dLys(Me3)][Abu(4-yl)]NTWK(Ac)[αMeC]Y(X3)[2Nal][Thp]EN[3Pal][Sar]-NH2; thioether 2-7) | 3.1 nM | 172 A^2 | –
4 | CC(=O)NCCCC[C@@H]1NC(=O)[C@H](Cc2c[nH]c3ccccc23)NC(=O)[C@H]([C@@H](C)O)NC(=O)[C@H](CC(N)=O)NC(=O)[C@@H](NC(=O)[C@@H](CCCNC(=N)N)NC(C)=O)CCSC[C@@](C)(C(=O)N[C@@H](Cc2ccc(OCCCCC[N+](C)(C)C)cc2)C(=O)N[C@@H](Cc2ccc3ccccc3c2)C(=O)NC2(C(=O)N[C@@H](CCCCNC(C)=O)C(=O)N[C@@H](CC(N)=O)C(=O)N[C@@H](Cc3cccnc3)C(=O)N(C)CC(N)=O)CCOCC2)NC1=O [compound 568, MeCO-r-Abu(1)-N-T-W-K(Ac)-aMeC(1)-TMAPF-2Nal-THP-K(Ac)-N-3Pya-Sar-CONH2] (Ac-[dR][Abu(4-yl)]NTWK(Ac)[αMeC]Y(X3)[2Nal][Thp]K(Ac)N[3Pal][Sar]-NH2; thioether 2-7) | 390 nM | 174 A^2 | –
5 | CCCCCCCCCCCCCC(=O)N[C@@H](CCC(=O)NCCOCCOCC(=O)NCCOCCOCC(=O)NCCCC[C@H](NC(=O)[C@H](Cc1ccc2ccccc2c1)NC(=O)[C@H](Cc1ccc(OCCCCC[N+](C)(C)C)cc1)NC(=O)[C@H]1NC(=O)[C@H](CCCCN(C)C(C)=O)NC(=O)[C@H](Cc2c[nH]c3c(C)cccc23)NC(=O)[C@H]([C@@H](C)O)NC(=O)[C@H](CC(=O)N(C)C)NC(=O)[C@@H](NC(=O)[C@@H](CCCCC[N+](C)(C)C)NC(=O)COCCOCCNC(=O)COCCOCCNC(=O)CC[C@H](NC(=O)CCCCCCCCCCCCC)C(=O)O)C(C)(C)SSC1(C)C)C(=O)N[C@@H](CC(N)=O)C(=O)N[C@@H](Cc1cccnc1)C(=O)N(C)CC(=O)N(C)C)C(=O)O [compound 570, C14gEPEG2PEG2CO-hk(Me)3-Pen(3)-N(N(Me)2)-T-7MeW-K(NMeAc)-Pen(3)-TMAPF-2Nal-K(PEG2PEG2gEC14)-N-3Pya-Sar-CON(Me)2] ({Myristoyl-γGlu-AEEA-AEEA}-[d(hLys(Me3))][Pen]D(NMe2)T[Trp(7-Me)][Lys(Me)](Ac)[Pen]Y(X3)[2Nal]K([AEEA-AEEA-γGlu-Myristoyl])N[3Pal][Sar]-NMe2; disulfide 2-7) | 29 nM | 154 A^2 | –
6 | CCCCCCCCCCCC(=O)N[C@@H](CCC(=O)NCCOCCOCC(=O)NCCOCCOCC(=O)NCCCC[C@@H](NC(C)=O)C(=O)N[C@@H]1C(=O)N[C@@H](CC(N)=O)C(=O)N[C@@H]([C@@H](C)O)C(=O)N[C@H](Cc2c[nH]c3c(C)cccc23)C(=O)N[C@@H](CCCCNC(C)=O)C(=O)N[C@H](C(=O)N[C@@H](Cc2ccc(OCCN)cc2)C(=O)N[C@@H](Cc2ccc3ccccc3c2)C(=O)NC2(C(=O)N[C@@H](CCCCNC(C)=O)C(=O)N[C@@H](CC(N)=O)C(=O)N[C@@H](Cc3cccnc3)C(=O)N(C)CC(N)=O)CCOCC2)C(C)(C)SSC1(C)C)C(=O)N[C@H](CC(=O)O)C[N+](C)(C)C [compound 572, MeCO-canEG2PEG2gE(c)C12-Pen(3)-N-T-7MeW-K(Ac)-Pen(3)-AEF-2Nal-THP-K(Ac)-N-3Pya-Sar-CONH2] (Ac-[dK]([AEEA-AEEA-X48])[Pen]NT[dTrp(7-Me)]K(Ac)[Pen][AEF][2Nal][Thp]K(Ac)N[3Pal][Sar]-NH2; disulfide 2-7) | 5.8 nM | 166 A^2 | –
7 | CC(=O)N(C)CCCCC(NC(=O)C1(NC(=O)[C@H](Cc2ccc3ccccc3c2)NC(=O)[C@H](Cc2ccc(OCCOCCOCC[N+](C)(C)C)cc2)NC(=O)[C@H]2NC(=O)[C@H](CCCCN(C)C(C)=O)NC(=O)[C@H](Cc3c[nH]c4c(C)cccc34)NC(=O)[C@H]([C@@H](C)O)NC(=O)[C@H](CC(=O)N(C)C)NC(=O)[C@@H](NC(=O)CCOCCOCC[N+](C)(C)C)C(C)(C)SSC2(C)C)CCOCC1)C(=O)N[C@@H](CC(N)=O)C(=O)N[C@@H](Cc1ccccc1)C(=O)N(C)CC(=O)N(C)C (stereo partly shown) [compound 573, cPEG3aCO-Pen(3)-N(N(Me)2)-T-7MeW-K(NMeAc)-Pen(3)-APEG3F-2Nal-THP-K(NMeAc)-N-F-Sar-CON(Me)2] ({Me3N+(CH2)2O(CH2)2O(CH2)2CO}-[Pen]D(NMe2)T[Trp(7-Me)][Lys(Me)](Ac)[Pen]Y(CH2CH2OCH2CH2OCH2CH2NMe3+)[2Nal][Thp][ξLys(Me)](Ac)NF[Sar]-NMe2; disulfide 1-6) | 650 nM | 153 A^2 | –
8 | cPEG3aCO-k(PEG2PEG2gEC14)-Pen(3)-N(N(Me)2)-T-7MeW-K(NMeAc)-Pen(3)-TMAPF-2Nal-THP-K(NMeAc)-N-3Pya-Sar-CON(Me)2 [compound 379] | 12 nM | – | 149.74 Å^2
